Experimental data published in the supplement of paper PMC11451515.

Tested on: P12-Ichikawa
Experiment: cell viability relative to DMSO control; higher = less cytotoxic
Conditions: 48 h
Summary of the method: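 Viability, reported as a per-plate percentage of DMSO wells with cell-free wells as background, came from CellTiter-Glo One luminescence. Reading took place after 48 h at 37°C. Before that, NOMO1 or SEM (500 cells/well) or P12-Ichikawa (1000 cells/well) leukemia cells, adapted for at least four passages in each medium, were seeded in 1536-well plates (5 μl) and pin-dosed with library compounds in DMSO, 47 μM to 0.79 nM over 11 threefold points.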

[1] = HPLM + 10% dialyzed FBS, 0.000781 µM
[2] = HPLM + 10% dialyzed FBS, 0.00234 µM
[3] = HPLM + 10% dialyzed FBS, 0.00702 µM
[4] = HPLM + 10% dialyzed FBS, 0.0211 µM
[5] = HPLM + 10% dialyzed FBS, 0.0632 µM
[6] = HPLM + 10% dialyzed FBS, 0.19 µM
[7] = HPLM + 10% dialyzed FBS, 0.569 µM
[8] = HPLM + 10% dialyzed FBS, 1.71 µM
[9] = HPLM + 10% dialyzed FBS, 5.12 µM
[10] = HPLM + 10% dialyzed FBS, 15.4 µM
[11] = HPLM + 10% dialyzed FBS, 46.1 µM
[12] = RPMI 5 mM glucose + 10% FBS, 0.000781 µM
[13] = RPMI 5 mM glucose + 10% FBS, 0.00234 µM
[14] = RPMI 5 mM glucose + 10% FBS, 0.00702 µM
[15] = RPMI 5 mM glucose + 10% FBS, 0.0211 µM
[16] = RPMI 5 mM glucose + 10% FBS, 0.0632 µM
[17] = RPMI 5 mM glucose + 10% FBS, 0.19 µM
[18] = RPMI 5 mM glucose + 10% FBS, 0.569 µM
[19] = RPMI 5 mM glucose + 10% FBS, 1.71 µM
[20] = RPMI 5 mM glucose + 10% FBS, 5.12 µM
[21] = RPMI 5 mM glucose + 10% FBS, 15.4 µM
[22] = RPMI 5 mM glucose + 10% FBS, 46.1 µM
[23] = RPMI 5 mM glucose + 10% dialyzed FBS, 0.000781 µM
[24] = RPMI 5 mM glucose + 10% dialyzed FBS, 0.00234 µM
[25] = RPMI 5 mM glucose + 10% dialyzed FBS, 0.00702 µM
[26] = RPMI 5 mM glucose + 10% dialyzed FBS, 0.0211 µM
[27] = RPMI 5 mM glucose + 10% dialyzed FBS, 0.0632 µM
[28] = RPMI 5 mM glucose + 10% dialyzed FBS, 0.19 µM
[29] = RPMI 5 mM glucose + 10% dialyzed FBS, 0.569 µM
[30] = RPMI 5 mM glucose + 10% dialyzed FBS, 1.71 µM
[31] = RPMI 5 mM glucose + 10% dialyzed FBS, 5.12 µM
[32] = RPMI 5 mM glucose + 10% dialyzed FBS, 15.4 µM
[33] = RPMI 5 mM glucose + 10% dialyzed FBS, 46.1 µM

SMILES	cell viability [1] [%]	cell viability [2] [%]	cell viability [3] [%]	cell viability [4] [%]	cell viability [5] [%]	cell viability [6] [%]	cell viability [7] [%]	cell viability [8] [%]	cell viability [9] [%]	cell viability [10] [%]	cell viability [11] [%]	cell viability [12] [%]	cell viability [13] [%]	cell viability [14] [%]	cell viability [15] [%]	cell viability [16] [%]	cell viability [17] [%]	cell viability [18] [%]	cell viability [19] [%]	cell viability [20] [%]	cell viability [21] [%]	cell viability [22] [%]	cell viability [23] [%]	cell viability [24] [%]	cell viability [25] [%]	cell viability [26] [%]	cell viability [27] [%]	cell viability [28] [%]	cell viability [29] [%]	cell viability [30] [%]	cell viability [31] [%]	cell viability [32] [%]	cell viability [33] [%]
Cn1c(Nc2ccc(C(F)(F)F)cc2)nc2cc(Oc3ccnc(-c4nc(C(F)(F)F)c[nH]4)c3)ccc21	120	112	119	93	133	125	126	123	111	81.8	27.1	–	–	–	–	–	–	–	–	–	–	–	–	–	–	–	–	–	–	–	–	–	–
C[C@@H](O)[C@@H]1[C@H]2[C@@H](C)\C(=C(/N2C1=O)C(=O)OCOC(=O)C(C)(C)C)SC3CN(C3)/C4=N/CCS4	95.2	107	110	111	112	108	111	112	112	116	109	78.9	102	108	100	109	104	107	111	107	111	103	97.3	106	109	118	107	108	109	102	111	111	111
CC(C)[C@@H](C[S+](=O)([O-])C(C)C)N1C(=O)[C@@](C)(CC(=O)O)C[C@H](c2cccc(Cl)c2)[C@H]1c1ccc(Cl)cc1	109	103	108	106	113	71.2	17.2	14	15.4	17.7	15.6	109	111	114	114	120	107	63.3	50.6	21.7	11.7	12.1	119	117	120	123	122	112	81.2	59.7	25.7	18.1	21.1
O=C1\C=C/C[C@@H]2[C@H]3CCCN4CCC[C@@H](CN12)[C@@H]34	98.2	103	107	101	108	99.2	98.1	104	98.9	99.1	89.6	103	116	109	101	98.5	94.8	98.5	85.7	93.5	96.8	89.7	102	98.5	97.8	105	98.4	94	105	95.7	100	94.3	86.8
CC1(C)C(=O)N(CCN2CCC(C(=O)c3ccc(F)cc3)CC2)c2ccccc21	112	116	117	120	118	123	126	122	120	120	113	–	–	–	–	–	–	–	–	–	–	–	109	110	118	123	126	125	121	123	115	97.9	93.5
CC(=O)N1CCN(c2ccc(OCc3nn(C)c(C)c3-c3cccc4c(CCCOc5cccc6ccccc56)c(C(=O)O)n(Cc5cccnc5)c34)cc2)CC1	108	116	123	122	120	119	124	122	108	31.8	9.79	98.4	118	123	123	124	125	137	135	123	28.2	11	107	124	121	128	128	123	136	129	134	91.1	25.5
CN1CCC(CC1)COC2=CN=C(N=C2)C3=CC(=CC=C3)CN4/N=C(\C=C/C4=O)C5=CC(=CC=C5)C#N	103	112	112	114	119	112	114	123	113	112	105	107	113	111	102	122	118	118	111	123	112	113	117	112	119	112	130	123	131	120	118	121	122
CC1=CC=CC=C1CN2C(=O)C/3=C(/CCN(CC4=CC=CC=C4)C3)N\5CC\N=C25	124	120	119	119	119	112	107	106	81.9	53.4	57.5	129	109	117	119	127	114	118	122	79.8	45.7	45.2	–	–	–	–	–	–	–	–	–	–	–
Cc1cccc(C)c1OCC(=O)N[C@@H](Cc1ccccc1)[C@@H](O)C[C@H](Cc1ccccc1)NC(=O)[C@H](C(C)C)N1CCCNC1=O	99.5	96.1	98.2	102	95.7	97	91.9	89.1	90.2	86.2	61.8	98.5	101	93.9	96	102	99.6	97.4	91.7	91.3	87.1	56.8	91.6	87.8	94.1	88.7	91.2	90.1	93.6	79.2	85.6	83.9	54.8
CN(C/C=C/C#CC(C)(C)C)Cc1cccc2ccccc12	96.2	103	101	104	105	103	106	90.6	103	105	107	90.6	93.1	100	93.8	100	105	101	101	98.9	102	94.5	92.3	94.4	89.7	92.3	99.5	90.8	90.9	96.5	91.8	91.3	93.8
CN1\C(=C(\O)C2=C(C=CS2)[S+]1([O-])=O)C(=O)NC3=CC=CC=N3	110	105	114	116	114	111	110	105	106	103	104	110	128	119	116	118	118	118	92.1	103	97.9	101	117	113	116	115	118	111	110	109	100	105	109
CCC1(c2ccc(N)cc2)CCC(=O)NC1=O (configuration not stated)	116	113	109	111	121	110	109	98.2	101	96.7	91.7	125	120	120	111	110	115	114	98.9	102	109	106	115	116	114	116	109	108	104	96.4	93.6	97.9	88
ClC1=CC(=CC=C1)N2CCN(CCCN3\N=C4\C=C/C=C\N4C3=O)CC2	118	120	120	134	128	132	134	142	140	134	139	–	–	–	–	–	–	–	–	–	–	–	–	–	–	–	–	–	–	–	–	–	–
CCOc1cc(N)c(Cl)cc1C(=O)NCC1CN(Cc2ccc(F)cc2)CCO1 (configuration not stated)	104	110	106	110	110	111	109	100	119	112	109	107	116	106	112	109	115	115	115	115	119	112	99.3	106	106	102	108	117	107	112	106	105	104
C=CC1=C(C(=O)O)N2C(=O)[C@@H](NC(=O)/C(=N\O)c3csc(N)n3)[C@H]2SC1	100	115	79.3	116	131	122	121	117	125	35.2	123	101	112	66.1	116	117	123	124	115	119	124	109	99.2	118	75.5	112	124	117	117	129	115	123	125
CC\1=C(C(=O)N(\C=C1)C2=CC=C(C=C2)C3=NC=CO3)/C4=CC5=CN=C(N)N=C5C=C4	105	114	111	108	115	111	109	117	105	110	91.3	106	112	108	102	112	105	109	102	106	98.6	80.2	102	103	111	112	117	109	111	110	94.2	105	79.6
